The record followed here is patent publication US12600728B2, “Interleukin-17 inhibitors” (priority 2020, dated 2026).

Molecules are shown by their SMILES.

recombinant human IL-17AA, sequence (Q16552 24-155): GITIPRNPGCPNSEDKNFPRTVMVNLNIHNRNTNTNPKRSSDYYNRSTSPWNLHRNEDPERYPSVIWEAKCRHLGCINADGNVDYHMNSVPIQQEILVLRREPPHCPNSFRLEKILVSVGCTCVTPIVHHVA
biotinylated human IL-17A / AF647-labeled human IL-17RA, sequence (Q16552 24-155): as above

One assay addresses recombinant human IL-17AA (Homo sapiens, UniProt Q16552). Put plainly: IL-6 release from NHDF cells, IL-17AA plus TNF-α stimulation. The conditions noted are these: NHDF cells, IL-17AA 30 pM + TNF-α 6 pM, 24 hours, IL-6 by ELISA; read-out: IL17AA + TNF IC50 IL-6. Format: cell-based. The protocol: IL-6 Release from NHDF Cells (Normal Human Dermal Fibroblasts)
NHDF cells isolated from normal adult mesoderm, connective tissues were cultured in fibroblast growth medium containing 2% supplement. […] The cells were allowed to adhere overnight before they were incubated with the compound/cytokine cocktail.
Diluted compounds were pre-incubated with recombinant human IL-17AA or IL-17AF plus human TNF-α for 30 minutes at room temperature on a shaker. […] The cells were incubated with the compound/cytokines cocktail for 24 hours at 37° C. (5% CO2). […] The final DMSO or plasma concentrations were 0.1% or 20%, respectively. All compound incubations were done in duplicate. The supernatants were collected to quantify IL-6 by ELISA according to the manufacturers instructions. The optical density was measured at 450 nm by an EnVision Multilabel Plate Reader (Perkin Elmer). The IL-6 levels produced after TNF-α stimulation were subtracted from the IL-6 produced after IL-17/TNF-α co-stimulation. These IL-17-specific IL-6 concentrations were used for […] value calculation.
(ELISA stands for enzyme-linked immunosorbent assay.)
In the case of `Cc1nocc1C(=O)NC(C(=O)Nc1ccc(-c2c(Cl)cc[n+]([O-])c2C)cc1)C1CC2CC2C1` (single isomer, unassigned) [Example 146], the IC50 was 57 nM.

The same assay, now with this note: NHDF cells, IL-17AA 30 pM + TNF-α 6 pM, 24 hours, IL-6 by ELISA; reference examples (pyridines); read-out: IL 17AA + TNF IC50 IL-6.
In the case of `Cc1nccc(Cl)c1-c1ccc(NC(=O)[C@@H](NC(=O)c2ccnn2C)C2CCCCC2)cc1F` [compound 137, N-((1S)-2-((4-(4-chloro-2-methylpyridin-3-yl)-3-fluorophenyl)amino)-1-cyclohexyl-2-oxoethyl)-1-methyl-1H-pyrazole-5-carboxamide, reference compound], the IC50 was 578 nM.

Staying with this assay, now noted: NHDF cells, IL-17AA 30 pM plus TNF-α 6 pM, 24 hours, IL-6 by ELISA; read-out: IL17AA + TNF IC50 IL-6.
Take `Cc1c(-c2ccc(NC(=O)[C@@H](NC(=O)c3ccnn3C)C3CCCCC3)cc2F)ccc[n+]1[O-]` [Example 83, (S)-3-(4-(2-cyclohexyl-2-(1-methyl-1H-pyrazole-5-carboxamido)acetamido)-2-fluorophenyl)-2-methylpyridine 1-oxide]: the IC50 was 115 nM.

`Cc1c(-c2ccc(NC(=O)[C@@H](NC(=O)c3ccnn3C)[C@H]3CCCC(F)(F)C3)cc2F)c(Cl)cc[n+]1[O-]` [Example 110, 4-chloro-3-(4-((S)-2-((S)-3,3-difluorocyclohexyl)-2-(1-methyl-1H-pyrazole-5-carboxamido)acetamido)-2-fluorophenyl)-2-methylpyridine 1-oxide]: the IC50 was determined as 8 nM.

A further assay deals with biotinylated human IL-17A / AF647-labeled human IL-17RA (Homo sapiens, UniProt Q16552). Nature of the assay: Human IL-17A×IL-17RA TR-FRET assay. The format is binding. The note with it: IL17AA FRET/ IL17Rawt IC50, TR-FRET, 5 nM IL-17A, 30 nM IL-17RA. The protocol:
Human IL-17A×IL-17RA TR-FRET Assay
Each compound concentration is tested in duplicate.
The final total assay volume is 10 μL.
Each plate contains test compounds in columns 1-22 and controls in columns 23 and 24. The neutral control (NC) contains all the assay components, but DMSO instead of test compound. […] The fluorescence values for emission at 615 nm and 665 nm are loaded to the evaluation software Helios.
From the activity data at each compound concentration, the IC50 values are obtained using the 4-parameter logistic function (“Hill-slope model”) of Helios.
On the technique in general: Time-resolved FRET reads energy transfer from a long-lived donor to a nearby acceptor.
`Cc1cc[n+]([O-])cc1-c1ccc(NC(=O)[C@@H](NC(=O)c2ccnn2C)C2CCCCC2)cc1F` [Example 168, (S)-3-(4-(2-cyclohexyl-2-(1-methyl-1H-pyrazole-5-carboxamido)acetamido)-2-fluorophenyl)-4-methylpyridine 1-oxide]: the IC50 was 1470 nM. Same read-out and setting: the same measure for `Cc1c(-c2ccc(NC(=O)[C@@H](NC(=O)c3ccnn3C)C3CCC(F)(F)CC3)cc2)cc(Cl)c[n+]1[O-]` [Example 177, (S)-5-chloro-3-(4-(2-(4,4-difluorocyclohexyl)-2-(1-methyl-1H-pyrazole-5-carboxamido)acetamido)phenyl)-2-methylpyridine 1-oxide]: 2110 nM.

Still in this assay, the particulars now being: TR-FRET, 5 nM IL-17A, 30 nM IL-17RA; read-out: IL17AA FRET/ IL17Rawt IC50.
As for `Cc1c(-c2ccc(NC(=O)[C@@H](NC(=O)c3ccc4n3CCN(C)C4)[C@H]3CCCC(F)(F)C3)cc2)c(C(F)(F)F)cc[n+]1[O-]` [Example 166, 3-(4-((S)-2-((S)-3,3-difluorocyclohexyl)-2-(2-methyl-1,2,3,4-tetrahydropyrrolo[1,2-a]pyrazine-6-carboxamido)acetamido)phenyl)-2-methyl-4-(trifluoromethyl)pyridine 1-oxide], the IC50 was found to be 358 nM. On to `COCc1nocc1C(=O)N[C@H](C(=O)Nc1ccc(-c2cc(Cl)c[n+]([O-])c2C)cc1)C1CCC(F)(F)CC1` [Example 176, (S)-5-chloro-3-(4-(2-(4,4-difluorocyclohexyl)-2-(3-(methoxymethyl)isoxazole-4-carboxamido)acetamido)phenyl)-2-methylpyridine 1-oxide], for which the IC50 worked out at 1610 nM. As for `Cc1cc[n+]([O-])c(C)c1-c1ccc(NC(=O)[C@@H](NC(=O)c2ccc3n2CCNC3)[C@H]2CCCC(F)(F)C2)cc1` [Example 208, 3-(4-((S)-2-((S)-3,3-difluorocyclohexyl)-2-(1,2,3,4-tetrahydropyrrolo[1,2-a]pyrazine-6-carboxamido)acetamido)phenyl)-2,4-dimethylpyridine 1-oxide], the IC50 was found to be 316 nM. With `CC(=O)N1CCn2c(ccc2C(=O)N[C@H](C(=O)Nc2ccc(-c3c(C(F)(F)F)cc[n+]([O-])c3C)cc2)C2CCC(F)(F)CC2)C1` [Example 210, (S)-3-(4-(2-(2-acetyl-1,2,3,4-tetrahydropyrrolo[1,2-a]pyrazine-6-carboxamido)-2-(4,4-difluorocyclohexyl)acetamido)phenyl)-2-methyl-4-(trifluoromethyl)pyridine 1-oxide], the IC50 amounted to 478 nM. Take `Cc1c(-c2ccc(NC(=O)C(NC(=O)c3ccc4n3CCNC4)[C@@H]3C[C@@H]4[C@H](C3)C4(F)F)cc2)c(Cl)cc[n+]1[O-]` (stereo partly drawn) [Example 211, 4-chloro-3-(4-(2-((1R,3s,5S)-6,6-difluorobicyclo[3.1.0]hexan-3-yl)-2-(1,2,3,4-tetrahydropyrrolo[1,2-a]pyrazine-6-carboxamido)acetamido)phenyl)-2-methylpyridine 1-oxide]: the IC50 was determined as 499 nM. As to `Cc1cc[n+]([O-])c(C)c1-c1ccc(NC(=O)C(NC(=O)c2ccc3n2CCN(C)C3)C(C)c2ccccc2Cl)cc1` (stereo not drawn) [Example 212, 3-(4-(3-(2-chlorophenyl)-2-(2-methyl-1,2,3,4-tetrahydropyrrolo[1,2-a]pyrazine-6-carboxamido)butanamido)phenyl)-2,4-dimethylpyridine 1-oxide], the IC50 is 502 nM.

Consider `Cc1cc[n+]([O-])c(C)c1-c1ccc(NC(=O)[C@@H](NC(=O)c2ccc3n2CCN(C)C3)C2CCC(F)CC2)cc1` (stereo partly drawn) [Example 214, 3-(4-((2S)-2-(4-fluorocyclohexyl)-2-(2-methyl-1,2,3,4-tetrahydropyrrolo[1,2-a]pyrazine-6-carboxamido)acetamido)phenyl)-2,4-dimethylpyridine 1-oxide], for which the IC50 turned out to be 690 nM. The same measure, in the same setting: the same measure for `Cc1cc[n+]([O-])c(C)c1-c1ccc(NC(=O)[C@@H](NC(=O)c2ccc3n2CCNC3)C(C)c2ccccc2Cl)cc1` (stereo partly drawn) [Example 216, 3-(4-((2S)-3-(2-chlorophenyl)-2-(1,2,3,4-tetrahydropyrrolo[1,2-a]pyrazine-6-carboxamido)butanamido)phenyl)-2,4-dimethylpyridine 1-oxide]: 796 nM; for `Cc1cc[n+]([O-])c(C)c1-c1ccc(NC(=O)C(NC(=O)c2ccc3n2CCNC3)C2CCC(C)CC2)cc1` [Example 220, 2,4-dimethyl-3-(4-((S)-2-((1r,4S)-4-methylcyclohexyl)-2-(1,2,3,4-tetrahydropyrrolo[1,2-a]pyrazine-6-carboxamido)acetamido)phenyl)pyridine 1-oxide]: 2310 nM; for `Cc1cc[n+]([O-])c(C)c1-c1ccc(NC(=O)C(NC(=O)c2ccnn2C)C2CC(F)CC(F)C2)cc1` (stereo not drawn) [Example 222, 3-(4-(2-(3,5-difluorocyclohexyl)-2-(1-methyl-1H-pyrazole-5-carboxamido)acetamido)phenyl)-2,4-dimethylpyridine 1-oxide]: 7290 nM. Same read-out and setting: the same measure for `CCn1nccc1C(=O)N[C@H](C(=O)Nc1ccc(-c2c(C(F)(F)F)cc[n+]([O-])c2C)cc1)C1CC2CC2C1` (stereo partly drawn) [Example 223, 3-(4-((2S)-2-(bicyclo[3.1.0]hexan-3-yl)-2-(1-ethyl-1H-pyrazole-5-carboxamido)acetamido)phenyl)-2-methyl-4-(trifluoromethyl)pyridine 1-oxide]: 9080 nM.

Still in this assay, the particulars now being: TR-FRET, 5 nM IL-17A, 30 nM IL-17RA; reference examples (pyridines); read-out: IL17AA FRET/ IL17RAwt IC50.
Consider `CCc1nocc1C(=O)N[C@H](C(=O)Nc1ccc(-c2c(Cl)ccnc2C)cc1)[C@H]1CCCC(F)(F)C1` [compound 140, N-((S)-2-((4-(4-chloro-2-methylpyridin-3-yl)phenyl)amino)-1-((S)-3,3-difluorocyclohexyl)-2-oxoethyl)-3-ethylisoxazole-4-carboxamide, reference compound], for which the IC50 came out at 1220 nM.

`CCn1nccc1C(=O)N[C@H](C(=O)Nc1ccc(-c2c(C)ccnc2C)cc1)[C@H]1CC[C@H](C(F)(F)F)CC1` [compound 141, N-((S)-2-((4-(2,4-dimethylpyridin-3-yl)phenyl)amino)-2-oxo-1-((1r,4S)-4-(trifluoromethyl)cyclohexyl)ethyl)-1-ethyl-1H-pyrazole-5-carboxamide, reference compound]: the IC50 worked out at 2630 nM. The same measure, in the same setting: the same measure for `CCc1nocc1C(=O)N[C@H](C(=O)Nc1ccc(-c2c(C)ccnc2C)cc1)[C@H]1CC[C@H](C(F)(F)F)CC1` [compound 142, N-((S)-2-((4-(2,4-dimethylpyridin-3-yl)phenyl)amino)-2-oxo-1-((1r,4S)-4-(trifluoromethyl)cyclohexyl)ethyl)-3-ethylisoxazole-4-carboxamide, reference compound]: 4380 nM; for `Cc1nocc1C(=O)N[C@H](C(=O)Nc1ccc(-c2c(C(F)(F)F)ccnc2C)cc1)[C@H]1CCCC(F)(F)C1` [compound 143, N-((S)-1-((S)-3,3-difluorocyclohexyl)-2-((4-(2-methyl-4-(trifluoromethyl)pyridin-3-yl)phenyl)amino)-2-oxoethyl)-3-methylisoxazole-4-carboxamide, reference compound]: 851 nM.
